# Literature values as cited in patent US10300068B2, “Method of treating insomnia” (priority 2015, dated 2019).
# What was measured:
# [1] = tested on: epicardial coronary arteries; conditions: patients with coronary artery disease
# [2] = Day 4, once-daily 40 mg, mild to moderate obstructive sleep apnea, n=26; 90% CI 0.22 to 5.09
# intestinal P-gp = intestinal P-gp (Homo sapiens, UniProt P08183); conditions: concomitant administration with digoxin
# [3] = 20 mg, healthy adults
# [4] = co-administered with alcohol
# [5] = obese vs non-obese patients, women vs men
# [6] = 40 mg non-elderly, 30 mg elderly; mild to moderate COPD, n=25
# [7] = patients, assessed by questionnaire
# Chain of intestinal P-gp (P08183 whole entry): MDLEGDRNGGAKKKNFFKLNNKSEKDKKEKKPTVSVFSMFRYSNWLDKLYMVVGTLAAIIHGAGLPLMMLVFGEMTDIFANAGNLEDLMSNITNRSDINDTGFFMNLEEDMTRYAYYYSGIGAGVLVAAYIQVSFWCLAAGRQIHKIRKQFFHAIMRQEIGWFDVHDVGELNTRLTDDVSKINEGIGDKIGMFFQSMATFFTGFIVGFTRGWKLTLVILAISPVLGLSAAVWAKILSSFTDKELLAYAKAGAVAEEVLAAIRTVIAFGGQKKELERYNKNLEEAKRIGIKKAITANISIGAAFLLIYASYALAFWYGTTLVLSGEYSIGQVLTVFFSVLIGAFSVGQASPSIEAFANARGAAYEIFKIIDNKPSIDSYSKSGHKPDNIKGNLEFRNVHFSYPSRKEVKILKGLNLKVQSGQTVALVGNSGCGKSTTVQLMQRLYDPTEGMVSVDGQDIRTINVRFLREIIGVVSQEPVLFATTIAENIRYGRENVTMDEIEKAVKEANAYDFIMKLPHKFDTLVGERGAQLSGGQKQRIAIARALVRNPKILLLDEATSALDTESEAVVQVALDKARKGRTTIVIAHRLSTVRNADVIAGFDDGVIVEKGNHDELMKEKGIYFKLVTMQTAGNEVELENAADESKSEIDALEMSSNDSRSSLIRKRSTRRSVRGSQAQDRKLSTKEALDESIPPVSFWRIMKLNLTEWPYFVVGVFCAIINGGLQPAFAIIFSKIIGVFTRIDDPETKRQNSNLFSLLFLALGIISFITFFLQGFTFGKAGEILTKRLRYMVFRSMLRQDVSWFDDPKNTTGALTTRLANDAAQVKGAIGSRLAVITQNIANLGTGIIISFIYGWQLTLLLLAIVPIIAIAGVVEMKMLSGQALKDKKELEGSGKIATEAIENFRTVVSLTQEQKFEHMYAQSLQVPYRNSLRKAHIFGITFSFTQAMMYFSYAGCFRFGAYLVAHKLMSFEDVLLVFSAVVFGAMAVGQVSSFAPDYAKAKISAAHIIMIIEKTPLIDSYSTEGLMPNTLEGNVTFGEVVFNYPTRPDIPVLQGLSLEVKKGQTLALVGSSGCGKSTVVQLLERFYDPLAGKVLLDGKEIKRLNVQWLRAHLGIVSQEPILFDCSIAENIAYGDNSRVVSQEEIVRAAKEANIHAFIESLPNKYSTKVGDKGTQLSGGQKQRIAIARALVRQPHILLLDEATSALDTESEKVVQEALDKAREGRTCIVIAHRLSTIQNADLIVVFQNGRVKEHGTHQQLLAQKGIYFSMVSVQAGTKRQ
SMILES,relaxation of epicardial coronary arteries [1],mean Apnea/Hypopnea Index treatment difference (suvorexant-placebo) [2],digoxin levels (intestinal P-gp),driving ability [3],pharmacokinetics of BELSOMRA [4],psychomotor impairment [4],exposure [5],respiratory depressant effects as measured by oxygen saturation [6],physical dependence with prolonged use (completed clinical trials),"withdrawal symptoms after discontinuation (human, in vivo)",suicidal ideation [7]
CCCc1nn(C)c2c(=O)[nH]c(-c3cc(S(=O)(=O)N4CCN(C)CC4)ccc3OCC)nc12 [sildenafil],relax epicardial coronary arteries,,,,,,,,,,
"Cc1ccc(-n2nccn2)c(C(=O)N2CCN(c3nc4cc(Cl)ccc4o3)CC[C@H]2C)c1 [BELSOMRA, suvorexant]",,2.7,slightly increased,impaired in some individuals,no alteration,additive psychomotor impairment,increased,no respiratory depressant effects,no evidence for physical dependence,no reported withdrawal symptoms,dose-dependent increase
